Experimental data reported in patent US20260250257A1, “ANTIBACTERIAL AND SYNERGISTIC ACTIVE COMPOUND AND USE THEREOF” (EAST CHINA UNIVERSITY OF SCIENCE AND TECHNOLOGY, priority 2023, published 2026).
Converted amounts (≈) assume the structure as drawn.

Assays:
[1] = system: ATCC13883 strain (Klebsiella pneumoniae); assay: Checkerboard antibacterial synergistic activity test with polymyxin E (FIC); format: cell-based; design: key: FIC≤0.5 synergy; 0.5–1 additive; 1–2 indifferent; ≥2 antagonism; conditions: combined with polymyxin E
How it was run: (§1)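 Broth checkerboard synergy with colistin; listed dilutions are working solutions, not final well levels. Overnight incubation, 16 h at 37° C.; FIC ≤0.5 denotes synergy, ≥2 antagonism.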

[2] = system: ATCC19606 strain (Acinetobacter baumannii); assay: as above; format: cell-based; design: key: FIC≤0.5 synergy; 0.5–1 additive; 1–2 indifferent; ≥2 antagonism; conditions: combined with polymyxin E
How it was run: as §1

[3] = system: ATCC25922 strain (Escherichia coli); assay: as above; format: cell-based; design: key: FIC≤0.5 synergy; 0.5–1 additive; 1–2 indifferent; ≥2 antagonism; conditions: combined with polymyxin E
How it was run: as §1

[4] = system: ATCC9027 strain (Pseudomonas aeruginosa); assay: as above; format: cell-based; design: key: FIC≤0.5 synergy; 0.5–1 additive; 1–2 indifferent; ≥2 antagonism; conditions: combined with polymyxin E
How it was run: as §1

[5] = system: ATCC13883 strain (Klebsiella pneumoniae); assay: Broth microdilution, antibacterial activity of the compound used alone; format: cell-based; conditions: read-out: Antibacterial activity of the compound of Formula I, ATCC13883
Source text: (§2) The broth microdilution method was used to test the antibacterial effects of the compounds of the present invention against various Gram-negative bacterial strains when used alone.

[6] = system: ATCC19606 strain (Acinetobacter baumannii); assay: as above; format: cell-based; conditions: read-out: Antibacterial activity of the compound of Formula I, ATCC19606
Source text: as §2

[7] = system: ATCC25922 strain (Escherichia coli); assay: as above; format: cell-based; conditions: read-out: Antibacterial activity of the compound of Formula I, ATCC25922
Source text: as §2

[8] = system: ATCC9027 strain (Pseudomonas aeruginosa); assay: as above; format: cell-based; conditions: read-out: Antibacterial activity of the compound of Formula I, ATCC9027
Source text: as §2

[9] = system: ATCC19606 strains (Acinetobacter baumannii); assay: In vivo synergistic bactericidal activity with polymyxin E, mouse bacteremia model; design: species or system Balb/c mice; conditions: for survival rate / synergistic effects with Polymyxin E in vivo: Polymyxin E 0.5 mg/kg + compound 16 mg/kg, Balb/c mice infected with ATCC19606; for survival rate: intraperitoneal
Protocol: Representative compounds I-14 and I-82 were tested for their in vivo synergistic bactericidal activities when combined with polymyxin E. The specific method is as follows:
Normal Balb/c mice (6-8 weeks old) were used, and the animals were randomly divided into four groups (5 mice per group): • I: Control group • II: Polymyxin E at 0.5 mg/kg body weight • III: Polymyxin E at 0.5 mg/kg body weight+Compound I-14 at 16 mg/kg • IV: Polymyxin E at 0.5 mg/kg body weight+Compound I-82 at 16 mg/kg
Freshly cultured ATCC19606 strains (logarithmic growth phase) were washed with saline, adjusted to an OD600 of ~1.0, and mixed at 1:1 (v/v) with 10% porcine mucin. Each mouse was intraperitoneally administered 500 μl of the mixture. 1 hour later, an intraperitoneal injection was given again, with the control group receiving only saline.

[10] = system: clinical strains of Acinetobacter baumannii; assay: Synergistic effect (FIC) on inhibiting clinical strains of Acinetobacter baumannii; format: cell-based; conditions: for FIC: with polymyxin E
Protocol: Polymyxin E was diluted in sterile MH broth medium to concentrations of 16, 8, 4, 2, 1, 0.5, 0.25, 0.125, 0.0625, 0.031, and 0.015 μg/ml, and the drug to be tested was diluted to concentrations of 256, 128, 64, 32, 16, 8, and 4 μg/ml. According to the checkerboard method, combinations of the drug to be tested and polymyxin at different concentrations in ascending order were placed into a 96-well plate, and corresponding blank control groups were set up. 50 μl of the drug solution was added to each well, then 100 μl of bacterial liquid was added, and incubated in a 37° C. incubator for 16 hours. […] Calculation and judgment criteria:
Fractional Inhibitory Concentration (FIC) is calculated as follows: […]
Judgment criteria: FIC≤0.5: synergistic effect; 0.5<FIC<1: additive effect; 1<FIC<2: indifferent effect; FIC≥2: antagonistic effect.
(§3) Compound I-82 of the present invention was used as the representative compound and tested against clinical strains of Acinetobacter baumannii. […] The selected A. baumannii strains were isolated from hospital clinical samples and preserved in the laboratory for research purposes.

[11] = system: clinical strains of Acinetobacter baumannii; assay: MIC of polymyxin E against polymyxin E-resistant clinical strains; format: cell-based
Source text: as §3

Molecule	Synergistic activity (FIC value) ATCC13883 [1]	Synergistic activity (FIC value) ATCC19606 [2]	Synergistic activity (FIC value) ATCC25922 [3]	Synergistic activity (FIC value) ATCC9027 [4]	MIC [5] [µg/mL]	MIC [6] [µg/mL]	MIC [7] [µg/mL]	MIC [8] [µg/mL]	survival rate ([9]; Day 5)	synergistic effects with Polymyxin E in vivo [9]	also measured
CC(C)(C)c1cc(-c2csc(N=C(N)N)n2)cc(C(C)(C)C)c1O [Compound I-14]	0.31	0.13	0.38	0.53	256 (≈ 739 µM)	256 (≈ 739 µM)	256 (≈ 739 µM)	256 (≈ 739 µM)	80%	synergistic effects	
Cc1ccc(Oc2ccccc2-c2csc(N=C(N)N)n2)c(C)c1 [Compound I-82]	0.16	0.03	0.18	0.28	256 (≈ 756 µM)	256 (≈ 756 µM)	256 (≈ 756 µM)	256 (≈ 756 µM)	above 60%	synergistic effects	Synergistic effects against clinical strains of A. baumannii ([10]; clinical strains with various resistance profiles): broad-spectrum synergistic effects; FIC ([10]; strain aba 30): 0.08; FIC ([10]; strain aba 39 (polymyxin E-resistant)): 0.13; FIC ([10]; strain aba 1611): 0.09; FIC ([10]; strain aba 1613): 0.13; FIC ([10]; strain aba 1617): 0.08; FIC ([10]; strain aba 1638): 0.02; FIC ([10]; strain aba 1645): 0.16; FIC ([10]; strain aba 4201): 0.09; FIC ([10]; strain aba 4230): 0.06; FIC ([10]; strain aba 6359): 0.09; FIC ([10]; strain aba 6380): 0.14; FIC ([10]; strain aba 6382): 0.09; FIC ([10]; strain aba 6410): 0.06; FIC ([10]; strain aba mia): 0.05; FIC ([10]; strain aba pmrA (polymyxin E-resistant)): 0.16
polymyxin E											MIC ([11]; strain aba39): 64 µg/mL; MIC ([11]; strain aba pmrA): 256 µg/mL; therapeutic effect on bacteremia in mice ([9]; Polymyxin E alone 0.5 mg/kg, Day 5, all mice died): no therapeutic effects
